What was measured:
[1] = tested on: morningglory; assay: Test B pre/postemergence morningglory; assay type: in vivo, Ipomoea hederacea
How it was run: (§1)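 Herbicidal effect was estimated by eye on a ten-point control scale after plants spent twelve to sixteen days in a greenhouse following soil or foliar treatment. Foliar sprays targeted plants at one to four leaves; all doses were formulated in a non-phytotoxic solvent with surfactant.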

[2] = tested on: velvetleaf; assay: Test B pre/postemergence velvetleaf; assay type: in vivo, Abutilon theophrasti
How it was run: as §1

[3] = tested on: pigweed; assay: Test B pre/postemergence pigweed; assay type: in vivo, Amaranthus retroflexus
How it was run: as §1

[4] = tested on: sugar beet; assay: Test B pre/postemergence sugar beet; assay type: in vivo, Beta vulgaris
How it was run: as §1

[5] = tested on: rape; assay: Test B pre/postemergence rape; assay type: in vivo, Brassica napus
How it was run: as §1

[6] = tested on: bamyardgrass; assay: Test B flood test barnyardgrass; assay type: in vivo, Echinochloa crus-galli
How it was run: (§2)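 Flood test on plants grown to the 2-leaf stage; treated plants kept in greenhouse twelve to sixteen days, then visually rated against controls on a 0 (no effect) to 10 (complete control) scale.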

[7] = tested on: soybean; assay: Test B pre/postemergence soybean; assay type: in vivo, Glycine max
How it was run: as §1

[8] = tested on: giant foxtail; assay: Test B pre/postemergence giant foxtail; assay type: in vivo, Setaria faberii
How it was run: as §1

[9] = tested on: wheat; assay: Test B pre/postemergence wheat; assay type: in vivo, Triticum aestivum
How it was run: as §1

[10] = tested on: cocklebur; assay: Test B pre/postemergence cocklebur; assay type: in vivo, Xanthium strumarium
How it was run: as §1

[11] = tested on: purple nutsedge; assay: Test B pre/postemergence purple nutsedge; assay type: in vivo, Cyperus rotundus
How it was run: as §1

[12] = tested on: corn; assay: Test B pre/postemergence corn; assay type: in vivo, Zea mays
How it was run: as §1

[13] = tested on: wild oat; assay: Test B pre/postemergence wild oat; assay type: in vivo, Avena fatua
How it was run: as §1

[14] = tested on: duck salad; assay: Test B flood test duck salad; assay type: in vivo, Heteranthera limosa
How it was run: as §2

[15] = tested on: crabgrass; assay: Test B pre/postemergence crabgrass; assay type: in vivo, Digitaria sanguinalis
How it was run: as §1

[16] = tested on: rice; assay: Test B flood test rice; assay type: in vivo, Oryza sativa
How it was run: as §2

[17] = Postemergence, Rate 125 g/ha, scale of 0 to 10 where 0 is no effect and 10 is complete control
[18] = Preemergence, Rate 62 g/ha, scale 0 to 10 (0 no effect, 10 complete control)
[19] = Preemergence, Rate 125 g/ha, 0 is no effect, 10 is complete control
[20] = Preemergence, Rate 250 g/ha, scale 0 to 10, 0 is no effect, 10 is complete control
[21] = Preemergence, Rate 500 g/ha, scale 0 to 10 (0 no effect, 10 complete control)
[22] = Rate 62 g/ha, Postemergence, scale of 0 to 10 where 0 is no effect and 10 is complete control
[23] = Rate 250 g/ha, Postemergence, scale 0 to 10, 0 is no effect, 10 is complete control
[24] = Rate 500 g/ha, Postemergence, scale 0 to 10
[25] = Postemergence (flood test species), Rate 125 g/ha, scale of 0 to 10 where 0 is no effect and 10 is complete control
[26] = Rate 62 g/ha, Postemergence section, flood test species, scale of 0 to 10 where 0 is no effect and 10 is complete control
[27] = Rate 250 g/ha, Postemergence (flood test), scale 0 to 10, 0 is no effect, 10 is complete control
[28] = Rate 500 g/ha, listed under Postemergence (flood test species), scale 0 to 10

CC(C)N(C(=O)n1oc(=O)n(CCCl)c1=O)c1ccc(F)cc1 [Compound 148]
7: Redroot pigweed plant response rating [3, 18] | Giant foxtail plant response rating [8, 18]
0: Morningglory plant response rating [1, 18] | Morningglory plant response rating (0 to 10 scale) [1, 19] | Morningglory plant response rating [1, 20] | Velvetleaf plant response rating [2, 17] | Velvetleaf plant response rating [2, 18] | Velvetleaf plant response rating [2, 22] | Plant response rating, Velvetleaf [2, 23] | Rape plant response rating [5, 18] | Rape plant response rating (0 to 10 scale) [5, 19] | Barnyardgrass plant response rating [6, 25] | Barnyardgrass plant response rating [6, 26] | Plant response rating, Barnyardgrass [6, 27] | Soybean plant response rating [7, 18] | Soybean plant response rating (0 to 10 scale) [7, 19] | Soybean plant response rating [7, 20] | Soybean plant response rating [7, 21] | Wheat plant response rating [9, 18] | Wheat plant response rating [9, 22] | Cocklebur plant response rating [10, 17] | Cocklebur plant response rating (0 to 10 scale) [10, 19] | Cocklebur plant response rating [10, 20] | Cocklebur plant response rating [10, 21] | Cocklebur plant response rating [10, 22] | Plant response rating, Cocklebur [10, 23] | Nutsedge plant response rating [11, 17] | Nutsedge plant response rating [11, 18] | Nutsedge plant response rating (0 to 10 scale) [11, 19] | Nutsedge plant response rating [11, 20] | Nutsedge plant response rating [11, 21] | Nutsedge plant response rating [11, 22] | Plant response rating, Nutsedge [11, 23] | Nutsedge plant response rating [11, 24] | Corn plant response rating [12, 17] | Corn plant response rating [12, 18] | Corn plant response rating (0 to 10 scale) [12, 19] | Corn plant response rating [12, 20] | Corn plant response rating [12, 21] | Corn plant response rating [12, 22] | Plant response rating, Corn [12, 23] | Corn plant response rating [12, 24] | Wild oats plant response rating [13, 22] | Ducksalad plant response rating [14, 25] | Ducksalad plant response rating [14, 26] | Plant response rating, Ducksalad [14, 27] | Ducksalad plant response rating [14, 28] | Rice plant response rating [16, 25] | Rice plant response rating [16, 26] | Plant response rating, Rice [16, 27] | Rice plant response rating [16, 28]
5: Morningglory plant response rating [1, 24] | Redroot pigweed plant response rating [3, 24] | Soybean plant response rating [7, 24] | Giant foxtail plant response rating [8, 22] | Wheat plant response rating [9, 24] | Plant response rating, Wild oats [13, 23] | Wild oats plant response rating [13, 24] | Crabgrass plant response rating [15, 18]
9: Redroot pigweed plant response rating (0 to 10 scale) [3, 19] | Redroot pigweed plant response rating [3, 20] | Rape plant response rating [5, 21] | Giant foxtail plant response rating (0 to 10 scale) [8, 19] | Giant foxtail plant response rating [8, 20] | Giant foxtail plant response rating [8, 24] | Crabgrass plant response rating [15, 20] | Crabgrass plant response rating [15, 21] | Crabgrass plant response rating [15, 24]
2: Redroot pigweed plant response rating [3, 17] | Redroot pigweed plant response rating [3, 22] | Sugarbeets plant response rating [4, 22] | Rape plant response rating [5, 17]
3: Morningglory plant response rating [1, 17] | Morningglory plant response rating [1, 22] | Plant response rating, Morningglory [1, 23] | Sugarbeets plant response rating [4, 17] | Plant response rating, Rape [5, 23] | Wheat plant response rating (0 to 10 scale) [9, 19] | Wheat plant response rating [9, 20] | Plant response rating, Wheat [9, 23] | Cocklebur plant response rating [10, 24]
6: Velvetleaf plant response rating (0 to 10 scale) [2, 19] | Sugarbeets plant response rating (0 to 10 scale) [4, 19] | Rape plant response rating [5, 20] | Wheat plant response rating [9, 21] | Wild oats plant response rating [13, 18] | Wild oats plant response rating (0 to 10 scale) [13, 19] | Wild oats plant response rating [13, 20]
1: Morningglory plant response rating [1, 21] | Velvetleaf plant response rating [2, 24] | Rape plant response rating [5, 22] | Wheat plant response rating [9, 17] | Wild oats plant response rating [13, 17]
4: Sugarbeets plant response rating [4, 18] | Plant response rating, Sugarbeets [4, 23] | Sugarbeets plant response rating [4, 24] | Rape plant response rating [5, 24] | Barnyardgrass plant response rating ([6]; Rate 500 g/ha, listed under Postemergence (flood test species), scale 0 to 10, 0 no effect, 10 complete control) | Soybean plant response rating [7, 17] | Soybean plant response rating [7, 22] | Plant response rating, Soybean [7, 23]
10: Redroot pigweed plant response rating [3, 21] | Sugarbeets plant response rating [4, 21] | Giant foxtail plant response rating [8, 21]
8: Velvetleaf plant response rating [2, 20] | Velvetleaf plant response rating [2, 21] | Sugarbeets plant response rating [4, 20] | Giant foxtail plant response rating [8, 17] | Plant response rating, Giant foxtail [8, 23] | Wild oats plant response rating [13, 21] | Crabgrass plant response rating [15, 17] | Crabgrass plant response rating (0 to 10 scale) [15, 19] | Crabgrass plant response rating [15, 22] | Plant response rating, Crabgrass [15, 23]

Reference: patent US6737383B1, “Herbicidal oxadiazolidines” (priority 1999, dated 2004)
